Assay results reported in patent publication US20250304535A1, “KAT6 Inhibitors” (BeiGene Switzerland GmbH, priority 2024, published 2025).

How the values were obtained:
[1] = test system: histone H3K23 acetylation in U-2 OS cells; assay: Histone H3 lysine 23 acetylation assay in U-2 OS cells (high content analysis); type: cell-based; conditions: 24 hrs exposure, H3K23ac level
Procedure, shortened: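 U-2 OS cells seeded overnight, then exposed 24 h to a 9-point compound dilution series; 0.1% DMSO medium as blank. Fixed, permeabilised, stained with anti-H3K23ac plus Alexa Fluor 647 secondary and DAPI; nuclear H3K23ac intensity read by high-content imaging. Inhibition = mean per-well cell intensity relative to on-plate blanks.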

[2] = target: Recombinant human KAT6A protein (497-780) (Homo sapiens (Human), UniProt Q92794); assay: KAT6A biochemical TR-FRET assay; conditions: histone H4 peptide 2000 nM, AcCoA 300 nM, enzyme 5 nM
Recombinant human KAT6A protein (497-780), sequence (Q92794 497-780): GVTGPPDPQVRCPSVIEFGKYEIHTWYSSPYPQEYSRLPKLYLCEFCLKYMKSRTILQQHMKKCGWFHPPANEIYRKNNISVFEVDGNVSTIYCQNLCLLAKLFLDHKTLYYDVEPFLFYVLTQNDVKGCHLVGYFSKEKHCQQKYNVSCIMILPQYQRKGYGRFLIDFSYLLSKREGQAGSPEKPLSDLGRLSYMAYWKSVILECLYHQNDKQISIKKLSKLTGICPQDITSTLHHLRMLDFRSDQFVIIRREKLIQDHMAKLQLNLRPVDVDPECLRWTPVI

[3] = target: Recombinant human KAT6B protein (657-1069) (Homo sapiens (Human), UniProt Q8WYB5); assay: KAT6B biochemical TR-FRET assay; conditions: histone H4 peptide 1000 nM, AcCoA 100 nM, enzyme 5 nM
Recombinant human KAT6B protein (657-1069), sequence (Q8WYB5 657-1069): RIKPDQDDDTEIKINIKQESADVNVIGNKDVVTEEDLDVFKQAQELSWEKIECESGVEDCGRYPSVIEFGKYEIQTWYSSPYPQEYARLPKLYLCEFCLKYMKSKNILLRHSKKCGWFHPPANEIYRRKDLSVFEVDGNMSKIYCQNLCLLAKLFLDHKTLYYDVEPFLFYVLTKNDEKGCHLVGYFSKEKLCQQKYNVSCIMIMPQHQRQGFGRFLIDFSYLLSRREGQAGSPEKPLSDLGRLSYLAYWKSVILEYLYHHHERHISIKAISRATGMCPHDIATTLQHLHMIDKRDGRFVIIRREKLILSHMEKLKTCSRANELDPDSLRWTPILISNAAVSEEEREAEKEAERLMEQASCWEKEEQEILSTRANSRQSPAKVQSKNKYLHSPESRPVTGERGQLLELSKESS

| IC50 ([1]; Homo sapiens, U2OS) [nM] | IC50 [2] [nM] | IC50 [3] [nM] | IC50 [1] [nM] | Compound |
| --- | --- | --- | --- | --- |
| 10 to 100 | ≤ 5 | ≤ 5 |  | COc1ccc(C(C)(C)C)nc1S(=O)(=O)NC(=O)c1ccc(Cn2cccn2)c(CC(F)F)c1 [Example C31, 4-((1H-pyrazol-1-yl)methyl)-N-((6-(tert-butyl)-3-methoxypyridin-2-yl)sulfonyl)-3-(2,2-difluoroethyl)benzamide] |
| ≤ 10 | ≤ 5 | ≤ 5 |  | C=Cc1cc(C(=O)NS(=O)(=O)c2cc(C(C)(C)C)ccc2OC)ccc1Cn1cccn1 [Example C4, 4-((1H-pyrazol-1-yl)methyl)-N-((5-(tert-butyl)-2-methoxyphenyl)sulfonyl)-3-vinylbenzamide] |
| ≤ 10 | ≤ 5 | ≤ 5 |  | COc1ccc(C2(OC)COC2)cc1S(=O)(=O)NC(=O)c1ccc(Cn2cccn2)c(OC)n1 [Example C67, 5-((1H-pyrazol-1-yl)methyl)-6-methoxy-N-((2-methoxy-5-(3-methoxyoxetan-3-yl)phenyl)sulfonyl) picolinamide] |
| ≤ 10 | ≤ 5 | ≤ 5 |  | COc1ccc(C(C)(C)C)nc1S(=O)(=O)NC(=O)c1ccc(Cn2cccn2)c(C(F)(F)F)c1 [Example C25, 4-((1H-pyrazol-1-yl)methyl)-N-((6-(tert-butyl)-3-methoxypyridin-2-yl)sulfonyl)-3-(trifluoromethyl)benzamide] |
| ≤ 10 | ≤ 5 | ≤ 5 |  | COc1cc(C(=O)NS(=O)(=O)c2nc(C(C)(C)C)ccc2OC)ccc1Cn1ccc(C)n1 [Example C33, N-((6-(tert-butyl)-3-methoxypyridin-2-yl)sulfonyl)-3-methoxy-4-((3-methyl-1H-pyrazol-1-yl)methyl)benzamide] |
| ≤ 10 | ≤ 5 | ≤ 5 |  | [2H]C([2H])([2H])Oc1nc(C(=O)NS(=O)(=O)c2c(OC)ccc3c2OCC3(C)C)ccc1Cn1cccn1 [Example C64, 5-((1H-pyrazol-1-yl)methyl)-6-(methoxy-d3)-N-((6-methoxy-3,3-dimethyl-2,3-dihydrobenzofuran-7-yl)sulfonyl) picolinamide] |
| ≤ 10 | ≤ 5 | ≤ 5 |  | COc1cc(C(=O)NS(=O)(=O)c2c(OC)ccc3c2OCC3(C)C)ccc1Cn1cccn1 [Example C49, 4-((1H-pyrazol-1-yl)methyl)-3-methoxy-N-((6-methoxy-3,3-dimethyl-2,3-dihydrobenzofuran-7-yl)sulfonyl)benzamide] |
| ≤ 10 | ≤ 5 | ≤ 5 |  | CCc1cc(C(=O)NS(=O)(=O)c2nc(C(C)(C)C)ccc2OC)ccc1Cn1cccn1 [Example C23, 4-((1H-pyrazol-1-yl)methyl)-N-((6-(tert-butyl)-3-methoxypyridin-2-yl)sulfonyl)-3-ethylbenzamide] |
| ≤ 10 | ≤ 5 | ≤ 5 |  | COc1ccc2c(c1S(=O)(=O)NC(=O)c1ccc(Cn3cccn3)c(OC)n1)OC(C)(C)C2 [Example C42, 5-((1H-pyrazol-1-yl)methyl)-6-methoxy-N-((6-methoxy-2,2-dimethyl-2,3-dihydrobenzofuran-7-yl)sulfonyl)picolinamide] |
| ≤ 10 | ≤ 5 | ≤ 5 |  | COc1cc2c(cc1S(=O)(=O)NC(=O)c1ccc(Cn3cccn3)c(OC)n1)C(C)(C)CO2 [Example C61, 5-((1H-pyrazol-1-yl)methyl)-6-methoxy-N-((6-methoxy-3,3-dimethyl-2,3-dihydrobenzofuran-5-yl)sulfonyl)picolinamide] |
| ≤ 10 | ≤ 5 | ≤ 5 |  | COc1cnc(C(C)(C)C)cc1S(=O)(=O)NC(=O)c1ccc(Cn2cccn2)c(OC)n1 [Example C72, 5-((1H-pyrazol-1-yl)methyl)-N-((2-(tert-butyl)-5-methoxypyridin-4-yl)sulfonyl)-6-methoxy-picolinamide] |
| 10 to 100 | ≤ 5 | ≤ 5 |  | COc1ccc(C(C)(C)C)nc1S(=O)(=O)NC(=O)c1ccc(Cn2cccn2)c(C2COC2)c1 [Example C19, 4-((1H-pyrazol-1-yl)methyl)-N-((6-(tert-butyl)-3-methoxypyridin-2-yl)sulfonyl)-3-(oxetan-3-yl)benzamid] |
| ≤ 10 | ≤ 5 | ≤ 5 |  | [2H]C([2H])([2H])Oc1nc(C(=O)NS(=O)(=O)c2c(OC)ccc3c2OC(C)(C)C3)ccc1Cn1cccn1 [Example C65, 5-((1H-pyrazol-1-yl)methyl)-6-(methoxy-d3)-N-((6-methoxy-2,2-dimethyl-2,3-dihydrobenzofuran-7-yl)sulfonyl) picolinamide] |
| 10 to 100 | ≤ 5 | ≤ 5 |  | COc1ccc(N2CCC(OC)CC2)cc1S(=O)(=O)NC(=O)c1ccc(Cn2cccn2)c(C2CC2)c1 [Example C17, 4-((1H-pyrazol-1-yl)methyl)-3-cyclopropyl-N-((2-methoxy-5-(4-methoxypiperidin-1-yl)phenyl)sulfonyl)benzamide] |
| ≤ 10 | ≤ 5 | ≤ 5 |  | COc1ccc(C2(C)CC3(COC3)C2)cc1S(=O)(=O)NC(=O)c1ccc(Cn2cccn2)c(OC)n1 [Example C74, 5-((1H-pyrazol-1-yl)methyl)-6-methoxy-N-((2-methoxy-5-(6-methyl-2-oxaspiro[3.3]heptan-6-yl)phenyl)sulfonyl) picolinamide] |

Further lines, the molecule ahead of its results:

| Compound | IC50 ([1]; Homo sapiens, U2OS) [nM] | IC50 [2] [nM] | IC50 [3] [nM] | IC50 [1] [nM] |
| --- | --- | --- | --- | --- |
| COc1ccc(C(C)(C)C)nc1S(=O)(=O)NC(=O)c1ccc(Cn2cccn2)c(OC)n1 [Example C41, 5-((1H-pyrazol-1-yl)methyl)-N-((6-(tert-butyl)-3-methoxypyridin-2-yl)sulfonyl)-6-methoxypicolinamide] | ≤ 10 | ≤ 5 | ≤ 5 |  |
| CCc1nc(C(=O)NS(=O)(=O)c2c(OC)ccc3c2OCC3(C)C)ccc1Cn1cccn1 [Example C53, 5-((1H-pyrazol-1-yl)methyl)-6-ethyl-N-((6-methoxy-3,3-dimethyl-2,3-dihydrobenzofuran-7-yl)sulfonyl)picolinamide] | ≤ 10 | ≤ 5 | ≤ 5 |  |
| COc1ccc(C(C)(C)C)cc1S(=O)(=O)NC(=O)c1ccc(Cn2cccn2)c(I)c1 [Example C1, 4-((1H-pyrazol-1-yl)methyl)-N-((5-(tert-butyl)-2-methoxyphenyl)sulfonyl)-3-iodobenzamide] | ≤ 10 | ≤ 5 | ≤ 5 |  |
| COc1ccc2c(c1S(=O)(=O)NC(=O)c1ccc(Cn3cccn3)c(OC)n1)OCCC2(C)C [Example C39, 5-((1H-pyrazol-1-yl)methyl)-6-methoxy-N-((7-methoxy-4,4-dimethylchroman-8-yl)sulfonyl)picolinamide] | ≤ 10 | ≤ 5 | ≤ 5 |  |
| COc1ccc2c(c1S(=O)(=O)NC(=O)c1ccc(Cn3cccn3)c(OC)n1)OCC21CCOCC1 [Example C71, 5-((1H-pyrazol-1-yl)methyl)-6-methoxy-N-((6-methoxy-2′,3′,5′,6′-tetrahydro-2H-spiro[benzofuran-3,4′-pyran]-7-yl)sulfonyl) picolinamide] | ≤ 10 | ≤ 5 | ≤ 5 |  |
| COCC(C)(C)c1ccc(OC)c(S(=O)(=O)NC(=O)c2ccc(Cn3cccn3)c(OC)n2)c1 [Example C57, 5-((1H-pyrazol-1-yl)methyl)-6-methoxy-N-((2-methoxy-5-(1-methoxy-2-methylpropan-2-yl)phenyl)sulfonyl)picolinamide] | ≤ 10 | ≤ 5 | ≤ 5 |  |
| COc1ccc(C2(OC)CC2)cc1S(=O)(=O)NC(=O)c1ccc(Cn2cccn2)c(OC)n1 [Example C56, 5-((1H-pyrazol-1-yl)methyl)-6-methoxy-N-((2-methoxy-5-(1-methoxycyclopropyl)phenyl)sulfonyl)picolinamide] | ≤ 10 | ≤ 5 | ≤ 5 |  |
| COc1ccc(C(C)(C)C)cc1S(=O)(=O)NC(=O)c1ccc(Cn2cccn2)c(N(C)C)c1 [Example C13, 4-((1H-pyrazol-1-yl)methyl)-N-((5-(tert-butyl)-2-methoxyphenyl)sulfonyl)-3-(dimethylamino)benzamide] | ≤ 10 | ≤ 5 | ≤ 5 |  |
| CCc1cc(C(=O)NS(=O)(=O)c2c(OC)ccc3c2OCC3(C)C)ccc1Cn1cccn1 [Example C51, 4-((1H-pyrazol-1-yl)methyl)-3-ethyl-N-((6-methoxy-3,3-dimethyl-2,3-dihydrobenzofuran-7-yl)sulfonyl)benzamide] | ≤ 10 | ≤ 5 | ≤ 5 |  |
| COc1cc(C(=O)NS(=O)(=O)c2nc(C(C)(C)C)ccc2OC)ccc1Cn1cc(N)cn1 [Example C38] |  | ≤ 5 | ≤ 5 | ≤ 10 |
| CCc1cc(C(=O)NS(=O)(=O)c2c(OC)ccc3c2OC(C)(C)C3)ccc1Cn1cccn1 [Example C52, 4-((1H-pyrazol-1-yl)methyl)-3-ethyl-N-((6-methoxy-2,2-dimethyl-2,3-dihydrobenzofuran-7-yl)sulfonyl)benzamide] | ≤ 10 | ≤ 5 | ≤ 5 |  |
| [2H]C([2H])([2H])Oc1nc(C(=O)NS(=O)(=O)c2nc(C(C)(C)C)ccc2OC)ccc1Cn1cccn1 [Example C63, 5-((1H-pyrazol-1-yl)methyl)-N-((6-(tert-butyl)-3-methoxypyridin-2-yl)sulfonyl)-6-(methoxy-d3)picolinamide] | ≤ 10 | ≤ 5 | ≤ 5 |  |
| COc1ccc2c(c1S(=O)(=O)NC(=O)c1ccc(Cn3cccn3)c(OC)n1)OC1CC2C1 [Example C78, 5-((1H-pyrazol-1-yl)methyl)-6-methoxy-N-((7-methoxy-3,4-dihydro-2H-2,4-methanochroman-8-yl)sulfonyl)picolinamide] |  | ≤ 5 | ≤ 5 | ≤ 10 |
